Test systems include KM12 colon; SK-MEL-28 melanoma; SF-539 CNS; CAKI-1 renal; SK-MEL-2 melanoma; M14 melanoma; OVCAR-5 ovarian; SK-MEL-5 melanoma; U251 CNS; SNB-75 CNS.
What all share (assay): DTP human tumour cell line panel, 48 h

The results in this text go back to PubChem BioAssay (NCI).

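Growth conditions: 96-well plates. Treatment: test compound, 48 hours, 5 concentrations. Analysis: linear interpolation between bracketing concentrations; unreached endpoints set to highest concentration. The concentration for full growth arrest is given as TGI.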 Where only a bound is given, the exact number is not on record here.

By TGI is commonly meant the concentration at which net growth stops. The low end stands for more potent growth arrest, the high end for less potent growth arrest. For `Cc1cnc2c(c1)C(=O)N(c1ccc(Br)cc1)S2(=O)=O`, the concentration for total growth inhibition (TGI) in the assay with KM12 colon, in the assay with SK-MEL-28 melanoma, in the assay on SF-539 CNS, with CAKI-1 renal, in the assay on SK-MEL-2 melanoma and with M14 melanoma was above 100 µM each time. The TGI with OVCAR-5 ovarian, in the assay with SK-MEL-5 melanoma, in the assay on U251 CNS and with SNB-75 CNS was above 100 µM in each case.

Consider `CC1=C(N2CC2)C(=O)C(C)=C(N2CC2)C1=O`, for which the total growth inhibition concentration (TGI) in the assay on KM12 colon was 1.89 µM; in the assay with SK-MEL-28 melanoma, 1.26 µM; in the assay with SF-539 CNS, 0.808 µM; in the assay with CAKI-1 renal, 1.37 µM; with SK-MEL-2 melanoma, 1.39 µM; with M14 melanoma, 1.25 µM. For the same compound, the TGI is 3.3 µM in the assay with OVCAR-5 ovarian, 0.363 µM in the assay on SK-MEL-5 melanoma, 0.994 µM in the assay on U251 CNS and 1.57 µM with SNB-75 CNS.

For `O=[N+]([O-])c1ccc(C2NC(=S)NC3c4cc([N+](=O)[O-])ccc4CCCC23)cc1` (stereo not given), the TGI with KM12 colon, in the assay with SK-MEL-28 melanoma, in the assay with SF-539 CNS, in the assay on CAKI-1 renal, with SK-MEL-2 melanoma and in the assay with M14 melanoma was above 100 µM throughout. Also, the TGI with OVCAR-5 ovarian was above 100 µM; with SK-MEL-5 melanoma it was above 100 µM; in the assay with U251 CNS it was above 100 µM; in the assay with SNB-75 CNS it was 44.2 µM.

With `Cc1cc(S(=O)(=O)Nc2nnc3c(Cl)cc(C(F)(F)F)cn23)c(S)cc1Cl`, the TGI in the assay on KM12 colon, in the assay with SK-MEL-28 melanoma, with SF-539 CNS, in the assay on CAKI-1 renal, in the assay with SK-MEL-2 melanoma and with M14 melanoma was above 100 µM each time. In addition, the TGI was above 100 µM in the assay on OVCAR-5 ovarian, above 80.6 µM in the assay with SK-MEL-5 melanoma, above 100 µM with U251 CNS and 9.12 µM in the assay on SNB-75 CNS.

As to `CC(C)C1CCC(=O)CC1CCCCC1CC(=O)CC1O[Si](C)(C)C(C)(C)C` (stereo not given), the total growth inhibition concentration (TGI) amounted to 7.93 µM in the assay on KM12 colon; 19.7 µM with SK-MEL-28 melanoma; 24.8 µM in the assay on SF-539 CNS; 19.4 µM in the assay with CAKI-1 renal; 24.5 µM in the assay with SK-MEL-2 melanoma; 43.4 µM in the assay on M14 melanoma. Also, the TGI in the assay with OVCAR-5 ovarian is 26.2 µM; with SK-MEL-5 melanoma, 12.6 µM; in the assay with U251 CNS, 5.84 µM; in the assay with SNB-75 CNS it was 26 µM.

In the case of `COc1ccc(OC)c(CCc2ccccc2CC(=O)O)c1`, the TGI with KM12 colon, with SK-MEL-28 melanoma, in the assay on SF-539 CNS, in the assay with CAKI-1 renal, with SK-MEL-2 melanoma and in the assay on M14 melanoma was above 100 µM in each case. Also, the TGI with OVCAR-5 ovarian, with SK-MEL-5 melanoma, in the assay on U251 CNS and with SNB-75 CNS was above 100 µM each time.

`NC1C2C=CC(C2)C1C(=O)O` (stereo not given): the TGI with KM12 colon, in the assay on SK-MEL-28 melanoma, with SF-539 CNS, with CAKI-1 renal, with SK-MEL-2 melanoma and in the assay on M14 melanoma was above 100 µM each time. In addition, the TGI in the assay with OVCAR-5 ovarian, in the assay with SK-MEL-5 melanoma, in the assay on U251 CNS and in the assay on SNB-75 CNS was above 100 µM in each case.

With `COc1c(N2CCCCC2)c2c(=O)c3ccccc3oc2c2c3ccccc3n(C)c12`, the TGI with KM12 colon, in the assay on SK-MEL-28 melanoma, with SF-539 CNS, in the assay on CAKI-1 renal, in the assay with SK-MEL-2 melanoma and with M14 melanoma was above 100 µM each time. Besides, the TGI in the assay with OVCAR-5 ovarian, in the assay on SK-MEL-5 melanoma, in the assay on U251 CNS and in the assay with SNB-75 CNS was above 100 µM throughout.

Consider `CC(C)NC(=O)OCc1c(COC(=O)NC(C)C)c(-c2cc[n+](COC(=O)Cc3ccccc3)cc2)n2c1CCC2`, for which the concentration for total growth inhibition (TGI) in the assay with KM12 colon, in the assay on SK-MEL-28 melanoma, with SF-539 CNS, with CAKI-1 renal, in the assay on SK-MEL-2 melanoma and in the assay with M14 melanoma was above 100 µM each time. Also, the total growth inhibition concentration (TGI) in the assay with OVCAR-5 ovarian, in the assay with SK-MEL-5 melanoma, with U251 CNS and in the assay on SNB-75 CNS was above 100 µM each time.

With `COc1ccc(C(SCCO)(c2ccc(OC)cc2)c2ccc(OC)cc2)cc1`, the concentration for total growth inhibition (TGI) is 71.1 µM in the assay on KM12 colon; 38.6 µM in the assay with SK-MEL-28 melanoma; 30.6 µM with SF-539 CNS; above 100 µM in the assay with CAKI-1 renal; 31.7 µM in the assay with SK-MEL-2 melanoma; 38.5 µM with M14 melanoma. The TGI stood at 79.7 µM with OVCAR-5 ovarian, 24.6 µM with SK-MEL-5 melanoma, 32.6 µM in the assay with U251 CNS and 61.1 µM with SNB-75 CNS.

As for `O=C(OCC1CC(C2(O)CCCCC2)C(=O)O1)c1ccccc1` (stereo not given), the TGI with KM12 colon, in the assay on SK-MEL-28 melanoma, in the assay with SF-539 CNS, in the assay with CAKI-1 renal, with SK-MEL-2 melanoma and in the assay with M14 melanoma was above 100 µM throughout. For the same compound, the TGI in the assay with OVCAR-5 ovarian, in the assay with SK-MEL-5 melanoma, with U251 CNS and in the assay with SNB-75 CNS was above 100 µM each time.

Turning to `CC(=O)OC1CC2C(=O)CC1(C)C2(C)C` (stereo not given), the concentration for total growth inhibition (TGI) with KM12 colon, in the assay on SK-MEL-28 melanoma, with SF-539 CNS, in the assay with CAKI-1 renal, with SK-MEL-2 melanoma and in the assay on M14 melanoma was above 100 µM throughout. The TGI in the assay with OVCAR-5 ovarian, in the assay on SK-MEL-5 melanoma, in the assay on U251 CNS and in the assay on SNB-75 CNS was above 100 µM each time.

With `CC1=C(C(=O)NNC(=O)c2ccccc2O)CC(C(=O)NNC(=O)c2ccccc2O)=C(C)N1`, the TGI is above 100 µM with KM12 colon; above 100 µM in the assay with SK-MEL-28 melanoma; 41.8 µM in the assay on SF-539 CNS; above 100 µM with CAKI-1 renal; above 100 µM in the assay on SK-MEL-2 melanoma; above 76 µM with M14 melanoma. Also, the concentration for total growth inhibition (TGI) in the assay with OVCAR-5 ovarian, with SK-MEL-5 melanoma, with U251 CNS and in the assay with SNB-75 CNS was above 100 µM each time.
